Results as given in article PMC10586017 (ACS Omega, 2023).
Marks after values point to notes of the source that are not given here.

How the values were obtained:
Type in all cases: cell-based
[1] = tested on: Vero cells; test: cells; settings: Chlorocebus sabaeus, read-out: mean IC50 Vero cells
[2] = tested on: Caco-2 cells; test: cells; settings: Homo sapiens, Caco-2, read-out: mean IC50 Caco-2 ± SD
[3] = tested on: HepG-2 cells; test: cells; settings: Homo sapiens, HepG2, read-out: mean IC50 HepG-2 ± SD
[4] = tested on: MCF-7 cells; test: cells; settings: Homo sapiens, MCF7, read-out: mean IC50 MCF-7 ± SD
[5] = tested on: β-actin
[6] = biological target: eIF4E (Homo sapiens, UniProt P06730)
Chain of eIF4E (P06730 whole entry): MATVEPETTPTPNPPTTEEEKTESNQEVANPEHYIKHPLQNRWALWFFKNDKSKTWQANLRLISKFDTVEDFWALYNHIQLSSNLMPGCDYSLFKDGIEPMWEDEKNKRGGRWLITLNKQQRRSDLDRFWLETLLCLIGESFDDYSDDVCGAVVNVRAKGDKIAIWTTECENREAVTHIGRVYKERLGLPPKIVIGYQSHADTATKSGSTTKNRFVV

[7] = biological target: p-eIF4E (Homo sapiens, UniProt P06730)
Chain of p-eIF4E (P06730 whole entry): as above

SMILES	IC50 [1] [µM]	IC50 [2] [µM]	IC50 [3] [µM]	IC50 [4] [µM]	mean protein, β-actin [5] [ng/mL]	protein ratio normalized to reference protein, β-actin [5]	change in fold, eIF4E [6]	decrease in eIF4E protein [6] [%]	mean protein, eIF4E [6] [ng/mL]	protein ratio normalized to reference protein, eIF4E [6]	change in fold, p-eIF4E [7]	inhibition (decrease) of p-eIF4E expression [7] [%]	mean protein, p-eIF4E [7] [ng/mL]	protein ratio normalized to reference protein, p-eIF4E [7]
CO[C@H]1C[C@@H]2CC[C@@H](C)[C@@](O)(O2)C(=O)C(=O)N2CCCC[C@H]2C(=O)O[C@H]([C@H](C)C[C@@H]2CC[C@@H](O)[C@H](OC)C2)CC(=O)[C@H](C)/C=C(\C)[C@@H](O)[C@@H](OC)C(=O)[C@H](C)C[C@H](C)/C=C/C=C/C=C/1C [Rapamycin]	> 100	27.7 ± 1.63	47.6 ± 3.83	5.62 ± 0.24	–	–	–	–	–	–	–	–	–	–
NC(=O)c1ncn([C@@H]2O[C@H](CO)[C@@H](O)[C@H]2O)n1 [Ribavirin]	> 100	9.78 ± 0.94	63.9 ± 3.43	10.2 ± 0.15	3.118	72.2	0.68	32.1	2.520	42.6*	0.47	53	2.190	35.5*
